Results: patent publication US9301923B2, “Lipids, lipid compositions, and methods of using them” (NOVARTIS AG, priority 2009, dated 2016)
Like-named read-outs stand apart in the source and are kept apart here.

What was measured:
[1] = Particle size and PDI by dynamic light scattering (Malvern Zetasizer); format: physicochemical
Protocol: Unless indicated otherwise, all sizes referred to herein are the average sizes (diameters) of the fully formed nanoparticle, as measured by dynamic light scattering on a Malvern Zetasizer. The nanoparticle sample is diluted in phosphate buffered saline (PBS) so that the count rate is approximately 200-400 kcts. The data is presented as a weighted average of the intensity measure.
The acronym PDI stands for polydispersity index. Unless indicated otherwise, all PDIs referred to herein are the PDI of the fully formed nanoparticle, as measured by dynamic light scattering on a Malvern Zetasizer. The nanoparticle sample is diluted in phosphate buffered saline (PBS) so that the count rate is approximately 200-400 kcts.

Factor VII = Factor VII activity assay, in vivo liver delivery of FVII siRNA LNP; parameters: species or system mouse; conditions: ~48 h
Protocol: Female CD-1 mice are received from Charles River Labs and maintained on standard lab chow and water ad libitum. The animals weigh approximately 25 grams at time of dosing. Formulated siRNA is administered as a single dose at various dose levels intravenously via the lateral tail vein calculated on a (mg siRNAs/kg) basis according to individual animal weights (10 ml/kg injection volume).
Formulated siRNAs are made up of double stranded siRNA sequences specific to a target mRNA sequence, and are in the form of lipid nucleotid particles (LNPs) containing cationic lipids, stealth lipids and neutral lipids, as provided in the Examples below. The siRNA construct for use in targeting the liver is specific to Factor VII. […] FVII siRNA duplex sequence
Formulated Factor VII siRNA is administered as a single dose at various dose levels intravenously via the lateral tail vein calculated on a mg siRNAs/kg basis according to individual animal weights (10 ml/kg injection volume). Approximately 48 h after injection, the mice are euthanized by CO2 inhalation followed by exsanguinations through the vena cava. […] In some cases, small pieces (˜50 mg) of liver are collected and snap frozen in liquid nitrogen for follow up mRNA quantitation.
An assay standard curve is prepared using pooled plasma aliquots from the vehicle control animals.

[2] = pKa of the lipid by TNS fluorescence; format: physicochemical
Protocol: Unless explicitly indicated otherwise, all pKas referred to herein are measured in water at standard temperature and pressure. Also, unless otherwise indicated, all references to pKa are references to pKa measured using the following technique.
2 mM solution of lipid in ethanol are prepared by weighing the lipid and then dissolving in ethanol.
This is done with all eight buffers.
Priority: Column priority • Carriage Speed: Normal • Auto read: Off
The normalized fluorescence intensity vs. pH chart is then plotted in the Microsoft Excel software. The eight points are connected with a smooth line.
The pKa determined using this method is precise to about 0.2 pKa units.

[3] = lipid/DSPC/CHOL/AVANTI 880150P 50/28/18/4, N/P 3.43
[4] = lipid/no neutral lipid/CHOL/AVANTI 880150P 50/0/46/4, N/P 3.43
[5] = dose 3 mg/kg siRNA i.v., lipid/DSPC/CHOL/AVANTI 880150P 50/28/18/4, N/P 3.43
[6] = dose 3 mg/kg siRNA i.v., lipid/no neutral lipid/CHOL/AVANTI 880150P 50/0/46/4, N/P 3.43
[7] = dose 1 mg/kg siRNA i.v., lipid/DSPC/CHOL/AVANTI 880150P 50/28/18/4, N/P 3.43
[8] = lipid/no neutral lipid/CHOL/GM-020 NOF 60/0/36/4, N/P 3
[9] = dose 1 mg/kg siRNA i.v., lipid/no neutral lipid/CHOL/GM-020 NOF 60/0/36/4, N/P 3

Row | Structure (SMILES) | Final size (nm) [1, 3] | PDI [1, 3] | Final size (nm) [1, 4] | PDI [1, 4] | FVII inhib % (Factor VII; [5]) | FVII inhib % (Factor VII; [6]) | pKa ([2]; aqueous buffer series with fluorescent probe TNS, probe TNS, pKa of the cationic lipid, read-out: pKa) | pKa ([2]; pKa) | FVII inhib % (Factor VII; [7]) | FVII inhib % (Factor VII; dose 1 mg/kg siRNA i.v., lipid/no neutral lipid/CHOL/AVANTI 880150P 50/0/46/4, N/P 3.43) | Final size (nm) [1, 8] | PDI [1, 8] | FVII inhib % (Factor VII; [9])
1 | CCCCC/C=C\C/C=C\CCCCCCCCOCC(CN1CCC(O[Si](C)(C)C(C)(C)C)C1)OCCOCCO[C@H]1CC[C@@]2(C)C(=CC[C@H]3[C@@H]4CC[C@H]([C@H](C)CCCC(C)C)[C@@]4(C)CC[C@@H]32)C1 (stereo partly drawn) [E0042] | 83 nm | 0.11 | 73 nm | 0.19 | 49.1% | 84.5% | 6.7 |  |  |  |  |  | 
2 | CCCCC/C=C\C/C=C\CCCCCCCCOC[C@H](CN1CCCCC1)OCCOCCO[C@H]1CC[C@@]2(C)C(=CCC3C2CC[C@@]2(C)C3CC[C@@H]2[C@H](C)CCCC(C)C)C1 (stereo partly drawn) [E0043] | 110 nm | 0.24 | 76 nm | 0.15 | 95.7% | −11.7% |  | 6.33 |  |  |  |  | 
3 | CCCCC/C=C\C/C=C\CCCCCCCCOCC(CN1C(C)CCC1C)OCCOCCO[C@H]1CC[C@@]2(C)C(=CCC3C2CC[C@@]2(C)C3CC[C@@H]2[C@H](C)CCCC(C)C)C1 (stereo partly drawn) [E0046] |  |  | 194 nm | 0.116 |  | 12.7% |  | 5.75 |  |  |  |  | 
4 | CCCCC/C=C\C/C=C\CCCCCCCCOCC(CN1CCCCC1)OC(=O)COCC(=O)O[C@H]1CC[C@@]2(C)C(=CCC3C2CC[C@@]2(C)C3CC[C@@H]2[C@H](C)CCCC(C)C)C1 (stereo partly drawn) [E0047] |  |  | 112 nm | 0.061 |  | −3.4% |  | 5.55 |  |  |  |  | 
5 | CCCCC/C=C\C/C=C\CCCCCCCCOCC(CN1CCC[C@@H]1C)OCCOCCO[C@H]1CC[C@@]2(C)C(=CCC3C2CC[C@@]2(C)C3CC[C@@H]2[C@H](C)CCCC(C)C)C1 (stereo partly drawn) [E0048] |  |  | 225 nm | 0.115 |  | 88.5% |  | 6.56 |  |  |  |  | 
6 | CCCCC/C=C\C/C=C\CCCCCCCCOCC(CN1CCC[C@H]1C)OCCOCCO[C@H]1CC[C@@]2(C)C(=CCC3C2CC[C@@]2(C)C3CC[C@@H]2[C@H](C)CCCC(C)C)C1 (stereo partly drawn) [E0049] |  |  | 237 nm | 0.09 |  | 78.8% |  | 6.85 |  |  |  |  | 
7 | CCCCC/C=C\C/C=C\CCCCCCCCOCC(CN1CCCC1c1ccccc1)OCCOCCO[C@H]1CC[C@@]2(C)C(=CC[C@H]3[C@@H]4CC[C@H]([C@H](C)CCCC(C)C)[C@@]4(C)CC[C@@H]32)C1 (stereo partly drawn) [E0050] | 100 nm | 0.21 | 103 nm | 0.097 | −7.2% | −10.4% |  | 4.9 |  |  |  |  | 
8 | CCCCC/C=C\C/C=C\CCCCCCCCOC[C@@H](CN1CCC[C@H]1C)OCCOCCO[C@H]1CC[C@@]2(C)C(=CCC3C2CC[C@@]2(C)C3CC[C@@H]2[C@H](C)CCCC(C)C)C1 (stereo partly drawn) [E0052] | 100.4 nm | 0.185 |  |  | 98.1% |  |  | 6.95 | 69.8% |  |  |  | 
9 | CCCCC/C=C\C/C=C\CCCCCCCCOCC(CN1CCCCC1)OCCOCCNC(=O)O[C@H]1CC[C@@]2(C)C(=CCC3C2CC[C@@]2(C)C3CC[C@@H]2[C@H](C)CCCC(C)C)C1 (stereo partly drawn) [E0054] | 103 nm | 0.2 | 96 nm | 0.13 | 97.8% | 98.9% |  | 6.58 | 57.5% | 63% |  |  | 
10 | CCCCC/C=C\C/C=C\CCCCCCCCOCC(CN1CCCCC1)OCCOCCOC(=O)CCC(=O)O[C@H]1CC[C@@]2(C)C(=CCC3C2CC[C@@]2(C)C3CC[C@@H]2[C@H](C)CCCC(C)C)C1 (stereo partly drawn) [E0060] |  |  |  |  |  |  |  | 6.43 |  |  | 90.25 nm | 0.171 | 0.0%
11 | CCCCCCCC/C=C\CCCCCCCCOCC(CN1CCC(OC)C1)OCCO[C@H]1CC[C@@]2(C)C(=CC[C@H]3[C@@H]4CC[C@H]([C@H](C)CCCC(C)C)[C@@]4(C)CC[C@@H]32)C1 (stereo partly drawn) [E0062] |  |  |  |  |  |  |  | 6.45 |  |  | 145.1 nm | 0.125 | 64.8%
12 | CCCCCCCC/C=C\CCCCCCCCOCC(CN1CCCCC1)OCCOCCO[C@H]1CC[C@@]2(C)C(=CC[C@H]3[C@@H]4CC[C@H]([C@H](C)CCCC(C)C)[C@@]4(C)CC[C@@H]32)C1 (stereo partly drawn) [E0063] |  |  |  |  |  |  |  | 6.48 |  |  | 155.5 nm | 0.09 | 33.3%
13 | CCCCCCCC/C=C\CCCCCCCCOCC(CN1CCC(OC)C1)OCCOCCO[C@H]1CC[C@@]2(C)C(=CC[C@H]3[C@@H]4CC[C@H]([C@H](C)CCCC(C)C)[C@@]4(C)CC[C@@H]32)C1 (stereo partly drawn) [E0064] |  |  |  |  |  |  |  | 6.83 |  |  | 169.2 nm | 0.144 | 37.2%
14 | CCCCCCCC/C=C\CCCCCCCCOCC(CN1CCCC1C)OCCOCCO[C@H]1CC[C@@]2(C)C(=CC[C@H]3[C@@H]4CC[C@H]([C@H](C)CCCC(C)C)[C@@]4(C)CC[C@@H]32)C1 (stereo partly drawn) [E0065] |  |  |  |  |  |  |  | 6.8 |  |  | 153.01 nm | 0.148 | 41.1%
15 | CCCCCCCC/C=C\CCCCCCCCOCC(CN1CCCC1C)OCCO[C@H]1CC[C@@]2(C)C(=CC[C@H]3[C@@H]4CC[C@H]([C@H](C)CCCC(C)C)[C@@]4(C)CC[C@@H]32)C1 (stereo partly drawn) [E0066] |  |  |  |  |  |  |  | 6.5 |  |  | 140.7 nm | 0.071 | 44.2%
16 | CCCCC/C=C\C/C=C\CCCCCCCCCCOCC(CN1CCOCC1)OCCO[C@H]1CC[C@@]2(C)C(=CC[C@H]3[C@@H]4CC[C@H]([C@H](C)CCCC(C)C)[C@@]4(C)CC[C@@H]32)C1 (stereo partly drawn) [E0068] |  |  |  |  |  |  |  | 4.82 |  |  | 174.0 nm | 0.041 | 28.6%
17 | CCCCC/C=C\C/C=C\CCCCCCCCCCOCC(CN1CCCCC1)OCCO[C@H]1CC[C@@]2(C)C(=CC[C@H]3[C@@H]4CC[C@H]([C@H](C)CCCC(C)C)[C@@]4(C)CC[C@@H]32)C1 (stereo partly drawn) [E0069] |  |  |  |  |  |  |  | 6.07 |  |  | 113.4 nm | 0.199 | 29%
18 | CCCCC/C=C\C/C=C\CCCCCCCCCCOCC(CN1CCCC1C)OCCO[C@H]1CC[C@@]2(C)C(=CC[C@H]3[C@@H]4CC[C@H]([C@H](C)CCCC(C)C)[C@@]4(C)CC[C@@H]32)C1 (stereo partly drawn) [E0070] |  |  |  |  |  |  |  | 6.4 |  |  | 150.9 nm | 0.045 | 50.3%
19 | CCCCC/C=C\C/C=C\CCCCCCCCCCOCC(CN1CCCCC1)OCCOCCO[C@H]1CC[C@@]2(C)C(=CC[C@H]3[C@@H]4CC[C@H]([C@H](C)CCCC(C)C)[C@@]4(C)CC[C@@H]32)C1 (stereo partly drawn) [E0071] |  |  |  |  |  |  |  | 6.47 |  |  | 188.2 nm | 0.151 | 30.8%
20 | CCCCCCCC/C=C\CCCCCCCCOCC(CN1CCCCC1)OCCCOCCCO[C@H]1CC[C@@]2(C)C(=CC[C@H]3[C@@H]4CC[C@H]([C@H](C)CCCC(C)C)[C@@]4(C)CC[C@@H]32)C1 (stereo partly drawn) [E0078] |  |  |  |  |  |  |  | 5.72 |  |  | 122.6 nm | 0.098 | 51.9%
21 | CCCCC/C=C\C/C=C\CCCCCCCCOCC(CN1CCCCC1)OCCOCCOCCOCCO[C@H]1CC[C@@]2(C)C(=CC[C@H]3[C@@H]4CC[C@H]([C@H](C)CCCC(C)C)[C@@]4(C)CC[C@@H]32)C1 (stereo partly drawn) [E0079] |  |  |  |  |  |  |  | 6.79 |  |  | 106.2 nm | 0.052 | 33.5%
